The source of these data is patent US20050261331A1, “Substituted pyrrolopyridines” (priority 2002, published 2005).

Series [1] deals with T1, recombinant human Itk kinase domain fused with GST (Homo sapiens, UniProt Q08881).
T1 construct: recombinant human Itk kinase domain fused with GST; made in house; host or cells: High Five insect cells
T1 sequence (Q08881 363-615 limits assumed): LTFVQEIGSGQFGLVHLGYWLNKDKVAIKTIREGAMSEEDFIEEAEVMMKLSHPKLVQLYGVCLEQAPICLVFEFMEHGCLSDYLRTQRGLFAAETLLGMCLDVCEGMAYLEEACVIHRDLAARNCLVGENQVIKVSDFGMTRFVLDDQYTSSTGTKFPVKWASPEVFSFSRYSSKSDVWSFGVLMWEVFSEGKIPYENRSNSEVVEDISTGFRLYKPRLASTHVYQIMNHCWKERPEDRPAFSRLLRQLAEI
Nature of the series: Itk LANCE TRF Assay. It counts as biochemical. As to conditions: 160 ng/well Itk, 2 μM peptide substrate, 50 μM ATP, 50 minutes RT; read-out: Inhibition of Kinase Itk (IC50 μM). The protocol:
The Itk kinase assay utilized recombinant human Itk kinase domain fused with GST (Glutathione S-Transferase). The protein was expressed in High five insect cells, purified in one step on an affinity chromatography glutathione column and stored in 50 mM Tris/HCl (pH 7.6), 150 mM NaCl, 5% (w/v) mannitol, 1 mM DTT, 30% glycerol at −70° C. The kinase substrate used in the assay was a biotinylated peptide derived from the Src-optimal substrate (Nair et al, J. Med. Chem., 38: 4276, 1995; biotin-AEEEIYGEFEAKKKK).
The assay additions were as follows: Test compounds (or controls; 1 μL in 100% DMSO) were added to black 96-well flat-bottomed plates (Greiner 655076) followed by 20 μL Itk in assay buffer and the reaction was started by adding 20 μL ATP and peptide substrate in assay buffer. The assay buffer constitution during phosphorylation was: 50 mM HEPES (pH 6.8), 10 mM MgCl2, 0.015% Brij 35, 1 mM DTT, 10% glycerol, 160 ng/well Itk, 2 μM peptide substrate and 50 μM ATP. The assay was stopped after 50 minutes (RT) by adding 150 μL ice-cold Stop solution (50 mM Tris/HCl, pH 7.5, 10 mM EDTA, 0.9% NaCl and 0.1% BSA) together with LANCE reagents (2 nM PT66-Eu^3+, Wallac AD0069 and 5 μg/ml Streptavidin-APC, Wallac AD0059. Both concentrations were final in stopped assay solution). The plates were measured on a Wallac 1420 Victor 2 instrument with TRF settings after 1 h incubation, and the ratio (665 signal/615 signal)*10000 was used to calculate the inhibition values. IC50 values were determined using XLfit.
On the technique in general: TR-FRET usually uses a lanthanide donor and a delayed reading to cut background.

One may read the IC50 as the concentration needed to halve the response being measured. Broadly, the melting point is the temperature, or range, at which the solid turns liquid.

Structures can show the parent of a compound that is named as a salt.

Regarding `CN(C)CCCOc1ccc(-c2c(-c3ccco3)[nH]c3ncc(Br)cc23)cc1` [Example 5, 3-{4-[S-Bromo-2-(2-furyl)-1H-pyrrolo[2,3-b]pyridin-3-yl]phenoxy}-N,N-dimethylpropan-1-amine trifluoroacetate], in series [1], the IC50 was 0.01 µM.

As for `Brc1cnc2[nH]c(-c3ccccc3)c(-c3ccco3)c2c1` [Example 12, 5-Bromo-3-furan-2-yl-2-phenyl-1-H-pyrrolo[2,3-b]pyridine], the melting point lay in the range of 105 to 107 °C.

With `CC(=O)NCc1ccc(-c2c(-c3ccccc3)[nH]c3ncc(Br)cc23)o1` [Example 13, N-[5-(5-Bromo-2-phenyl-1-H-pyrrolo[2,3-b]pyridin-3-yl)-furan-2-ylmethyl]-acetamide], the melting point is 176 to 176.5 °C. In addition, the IC50 in series [1] is 0.03 µM.

As to `N#Cc1cnc2[nH]c(-c3ccccc3)c(-c3ccc(N4CCOCC4)cc3)c2c1` [Example 44, 3-(4-Morpholin-4-ylphenyl)-2-phenyl-1H-pyrrolo[2,3-b]pyridine-5-carbonitrile], the IC50 in series [1] was 0.44 µM.

As for `Cc1c(Br)cnc2[nH]c(-c3ccc(OCCCN(C)C)cc3)c(-c3cccnc3)c12` [Example 55, {3-[4-(5-Bromo-4-methyl-3-pyridin-3-yl-1H-pyrrolo[2,3-b]pyridin-2-yl)phenoxy]propyl}dimethylamine], the IC50 in series [1] stood at 0.01 µM.

`CN(C)CCCN(C)c1ccc(-c2[nH]c3ncc(Cl)cc3c2-c2cncnc2)cn1` [Example 61, N-[5-(5-Chloro-3-pyrimidin-5-yl-1H-pyrrolo[2,3-b]pyridin-2-yl]-N,N′,N′-trimethylpropane-1,3-diaminetrihydrochloride]: the IC50 in series [1] turned out to be 0.04 µM.
